In paper PMC3057289 (2011) one finds IC50 data, which are given here for one compound.

The assay addresses T1, TRPC5 (Homo sapiens, UniProt Q9UL62).
T1 sequence (Q9UL62 1-973): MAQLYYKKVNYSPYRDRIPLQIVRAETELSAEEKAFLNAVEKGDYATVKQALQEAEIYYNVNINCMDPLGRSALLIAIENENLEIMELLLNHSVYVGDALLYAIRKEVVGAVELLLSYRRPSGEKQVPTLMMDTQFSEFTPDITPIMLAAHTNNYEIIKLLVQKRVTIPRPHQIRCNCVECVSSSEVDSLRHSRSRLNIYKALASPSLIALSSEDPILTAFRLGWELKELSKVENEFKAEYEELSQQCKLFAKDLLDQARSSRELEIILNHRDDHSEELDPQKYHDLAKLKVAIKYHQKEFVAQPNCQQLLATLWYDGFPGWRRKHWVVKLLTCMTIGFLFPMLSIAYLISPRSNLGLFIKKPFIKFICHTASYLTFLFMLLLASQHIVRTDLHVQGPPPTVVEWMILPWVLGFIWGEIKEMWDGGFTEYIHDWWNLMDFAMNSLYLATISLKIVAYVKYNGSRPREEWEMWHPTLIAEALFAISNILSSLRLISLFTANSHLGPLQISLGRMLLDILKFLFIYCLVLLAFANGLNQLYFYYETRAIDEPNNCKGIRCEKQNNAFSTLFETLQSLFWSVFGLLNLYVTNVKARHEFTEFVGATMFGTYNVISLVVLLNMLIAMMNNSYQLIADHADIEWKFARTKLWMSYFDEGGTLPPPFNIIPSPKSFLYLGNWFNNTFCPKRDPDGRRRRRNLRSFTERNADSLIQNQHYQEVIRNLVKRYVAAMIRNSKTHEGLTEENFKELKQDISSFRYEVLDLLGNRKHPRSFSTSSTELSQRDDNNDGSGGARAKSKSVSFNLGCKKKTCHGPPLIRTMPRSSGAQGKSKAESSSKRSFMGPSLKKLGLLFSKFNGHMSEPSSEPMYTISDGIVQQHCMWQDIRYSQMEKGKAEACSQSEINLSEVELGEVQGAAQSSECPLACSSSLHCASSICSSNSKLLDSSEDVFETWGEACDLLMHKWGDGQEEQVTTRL
The class given is cell-based.

The IC50 is the concentration that gives 50% inhibition. A lower IC50 goes with greater potency in that assay. Take `CC(=O)[C@H]1CC[C@H]2[C@@H]3CCC4=CC(=O)CC[C@]4(C)[C@H]3CC[C@]12C` [prog, progesterone]: the IC50 was found to be 5 µM.
